{
  "source": "patent US20150005262A1",
  "about": "“HYPOXIA ACTIVATED PRODRUGS AND MTOR INHIBITORS FOR TREATING CANCER” (THRESHOLD PHARMACEUTICALS, INC., priority 2011, published 2015)",
  "key": {"mTOR": {"biological_target": "mTOR (Homo sapiens, UniProt P42345)", "conditions": "cited from earlier work"}, "PI3K": {"tested_on": "PI3K", "conditions": "read-out: IC50 for PI3-K; cited from earlier work"}, "DNA-PK": {"biological_target": "DNA-PK (Homo sapiens, UniProt P78527)", "sequence (P78527 whole entry)": "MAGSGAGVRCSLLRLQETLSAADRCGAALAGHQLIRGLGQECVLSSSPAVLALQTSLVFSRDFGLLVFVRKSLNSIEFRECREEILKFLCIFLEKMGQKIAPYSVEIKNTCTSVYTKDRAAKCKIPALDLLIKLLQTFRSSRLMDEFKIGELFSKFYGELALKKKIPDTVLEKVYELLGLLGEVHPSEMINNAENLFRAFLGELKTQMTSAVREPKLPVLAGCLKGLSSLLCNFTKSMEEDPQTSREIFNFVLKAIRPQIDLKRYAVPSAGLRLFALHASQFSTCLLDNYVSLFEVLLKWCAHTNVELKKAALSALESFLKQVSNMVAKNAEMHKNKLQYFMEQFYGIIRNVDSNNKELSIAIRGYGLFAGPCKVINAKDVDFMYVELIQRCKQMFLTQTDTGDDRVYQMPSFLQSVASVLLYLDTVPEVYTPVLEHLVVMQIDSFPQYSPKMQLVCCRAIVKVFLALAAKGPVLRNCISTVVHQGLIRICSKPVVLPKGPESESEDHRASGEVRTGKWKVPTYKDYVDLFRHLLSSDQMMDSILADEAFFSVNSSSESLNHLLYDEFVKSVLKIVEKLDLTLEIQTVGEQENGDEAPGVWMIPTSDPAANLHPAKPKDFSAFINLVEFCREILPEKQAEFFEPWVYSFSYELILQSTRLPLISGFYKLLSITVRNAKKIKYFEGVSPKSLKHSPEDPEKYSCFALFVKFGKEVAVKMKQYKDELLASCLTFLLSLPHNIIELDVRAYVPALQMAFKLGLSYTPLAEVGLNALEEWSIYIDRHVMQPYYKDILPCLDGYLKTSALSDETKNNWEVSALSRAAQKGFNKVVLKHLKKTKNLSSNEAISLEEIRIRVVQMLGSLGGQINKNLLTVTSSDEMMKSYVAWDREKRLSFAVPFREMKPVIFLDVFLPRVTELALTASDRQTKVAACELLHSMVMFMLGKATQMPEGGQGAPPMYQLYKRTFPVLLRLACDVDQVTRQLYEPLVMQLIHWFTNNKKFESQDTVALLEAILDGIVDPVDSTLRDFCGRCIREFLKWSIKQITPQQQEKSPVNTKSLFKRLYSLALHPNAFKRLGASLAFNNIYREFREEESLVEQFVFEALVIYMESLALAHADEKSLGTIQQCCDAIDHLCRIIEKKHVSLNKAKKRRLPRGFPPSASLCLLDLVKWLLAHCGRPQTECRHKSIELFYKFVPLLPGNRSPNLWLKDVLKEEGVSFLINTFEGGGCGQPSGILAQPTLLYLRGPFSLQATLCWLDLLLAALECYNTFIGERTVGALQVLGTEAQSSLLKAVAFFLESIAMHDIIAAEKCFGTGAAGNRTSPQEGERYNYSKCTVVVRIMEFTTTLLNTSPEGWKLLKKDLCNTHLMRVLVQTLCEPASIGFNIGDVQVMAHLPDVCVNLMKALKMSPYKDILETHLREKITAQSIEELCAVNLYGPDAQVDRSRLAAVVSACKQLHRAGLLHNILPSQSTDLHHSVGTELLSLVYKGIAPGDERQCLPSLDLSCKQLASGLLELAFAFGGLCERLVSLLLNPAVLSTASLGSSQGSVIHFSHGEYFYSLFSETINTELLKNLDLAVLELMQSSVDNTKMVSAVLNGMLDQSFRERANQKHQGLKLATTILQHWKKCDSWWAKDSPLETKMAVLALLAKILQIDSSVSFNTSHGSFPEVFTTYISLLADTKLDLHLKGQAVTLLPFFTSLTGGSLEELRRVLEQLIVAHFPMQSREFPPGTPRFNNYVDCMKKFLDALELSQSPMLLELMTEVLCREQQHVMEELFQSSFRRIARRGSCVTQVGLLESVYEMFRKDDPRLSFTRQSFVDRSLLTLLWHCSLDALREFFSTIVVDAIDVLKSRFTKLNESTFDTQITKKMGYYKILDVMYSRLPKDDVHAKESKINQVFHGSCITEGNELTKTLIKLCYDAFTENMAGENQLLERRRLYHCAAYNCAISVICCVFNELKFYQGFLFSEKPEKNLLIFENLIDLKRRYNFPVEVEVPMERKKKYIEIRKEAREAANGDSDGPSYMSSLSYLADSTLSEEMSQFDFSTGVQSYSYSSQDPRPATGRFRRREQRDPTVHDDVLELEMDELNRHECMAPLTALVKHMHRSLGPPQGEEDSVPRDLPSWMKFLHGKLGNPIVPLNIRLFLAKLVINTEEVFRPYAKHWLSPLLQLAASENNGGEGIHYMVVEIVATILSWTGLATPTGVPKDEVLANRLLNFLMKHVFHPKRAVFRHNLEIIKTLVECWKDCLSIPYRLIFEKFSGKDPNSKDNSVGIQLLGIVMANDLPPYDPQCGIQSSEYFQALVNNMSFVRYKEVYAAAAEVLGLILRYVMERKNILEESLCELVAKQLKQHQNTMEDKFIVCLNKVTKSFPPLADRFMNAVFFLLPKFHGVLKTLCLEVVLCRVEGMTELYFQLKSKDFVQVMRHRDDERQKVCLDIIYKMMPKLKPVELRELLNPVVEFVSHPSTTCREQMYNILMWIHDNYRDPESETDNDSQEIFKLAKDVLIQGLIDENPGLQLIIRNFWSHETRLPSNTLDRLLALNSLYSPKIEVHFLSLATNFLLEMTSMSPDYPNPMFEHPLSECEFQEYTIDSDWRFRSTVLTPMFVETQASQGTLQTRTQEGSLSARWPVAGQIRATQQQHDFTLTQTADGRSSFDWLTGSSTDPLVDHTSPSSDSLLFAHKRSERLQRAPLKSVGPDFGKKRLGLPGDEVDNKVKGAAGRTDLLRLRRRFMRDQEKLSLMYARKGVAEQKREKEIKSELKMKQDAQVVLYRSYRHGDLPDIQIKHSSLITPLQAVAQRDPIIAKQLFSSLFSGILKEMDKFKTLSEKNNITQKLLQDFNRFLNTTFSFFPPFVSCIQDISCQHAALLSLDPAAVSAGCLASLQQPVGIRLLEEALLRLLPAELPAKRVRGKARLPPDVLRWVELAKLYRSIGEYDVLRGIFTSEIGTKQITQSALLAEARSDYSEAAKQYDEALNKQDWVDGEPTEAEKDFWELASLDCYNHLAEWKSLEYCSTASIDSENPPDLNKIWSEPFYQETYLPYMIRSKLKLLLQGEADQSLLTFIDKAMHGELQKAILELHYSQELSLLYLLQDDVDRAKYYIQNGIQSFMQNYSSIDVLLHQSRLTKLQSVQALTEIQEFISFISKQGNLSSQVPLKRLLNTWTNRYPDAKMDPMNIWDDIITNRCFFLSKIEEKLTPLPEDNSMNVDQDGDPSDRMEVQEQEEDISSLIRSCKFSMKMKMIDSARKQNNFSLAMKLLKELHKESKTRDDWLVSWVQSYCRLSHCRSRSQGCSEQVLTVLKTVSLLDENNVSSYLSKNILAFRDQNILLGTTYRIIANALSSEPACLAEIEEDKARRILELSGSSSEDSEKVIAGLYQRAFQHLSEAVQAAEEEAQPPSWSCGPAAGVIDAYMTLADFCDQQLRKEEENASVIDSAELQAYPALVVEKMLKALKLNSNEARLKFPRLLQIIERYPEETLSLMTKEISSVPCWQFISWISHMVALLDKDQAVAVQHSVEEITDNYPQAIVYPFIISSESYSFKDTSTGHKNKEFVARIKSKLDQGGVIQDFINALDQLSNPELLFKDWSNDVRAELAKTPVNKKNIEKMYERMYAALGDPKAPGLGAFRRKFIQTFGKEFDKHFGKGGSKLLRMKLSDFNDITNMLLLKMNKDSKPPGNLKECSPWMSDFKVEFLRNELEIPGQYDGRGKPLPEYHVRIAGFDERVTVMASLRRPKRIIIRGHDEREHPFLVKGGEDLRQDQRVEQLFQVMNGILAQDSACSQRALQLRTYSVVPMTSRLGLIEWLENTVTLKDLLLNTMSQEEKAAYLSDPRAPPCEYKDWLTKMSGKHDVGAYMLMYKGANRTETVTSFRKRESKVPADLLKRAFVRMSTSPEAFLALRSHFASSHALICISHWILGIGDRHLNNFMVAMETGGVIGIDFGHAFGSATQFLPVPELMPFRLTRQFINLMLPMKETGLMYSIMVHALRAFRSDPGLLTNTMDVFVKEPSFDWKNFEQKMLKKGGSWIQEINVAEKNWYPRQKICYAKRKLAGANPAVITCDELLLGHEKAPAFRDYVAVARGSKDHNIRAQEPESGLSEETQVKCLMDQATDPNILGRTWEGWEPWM", "conditions": "cited from earlier work"}, "NCI-60 cell lines panel": {"tested_on": "NCI-60 cell lines panel", "conditions": "cited from earlier work"}, "Caki-1 cells [1]": {"tested_on": "Caki-1 cells", "assay": "Caki-1 RCC ectopic xenograft, TH-302 with temsirolimus", "format": "in vivo, nude mice", "conditions": "Caki-1 model, temsirolimus 20 mg/kg QD×19 i.p.", "text": "(§1) In one combination therapy group, the temsirolimus and TH-302 administration both began on day 1; in the other combination therapy group, the TH-302 administration was initiated on day 8 after the first temsirolimus administration. Thus, two TH-302 monotherapy groups served as comparison groups (one group starting on day 1 and the other starting on day 8). […] The weight returned to normal when treatment stopped."}, "[2]": {"tested_on": "Caki-1 RCC xenograft tumors", "assay": "Tumor hypoxia (pimonidazole, morphometric analysis) in Caki-1 xenograft", "format": "in vivo, nude mice", "conditions": "for tumor hypoxic fraction: temsirolimus 20 mg/kg i.p. QD×8, TH-302 150 mg/kg i.p., sampled 72 hr after TH-302; for change of tumor hypoxia (in words): vs vehicle, combination vs mTOR inhibitor alone", "method": "Nude mice bearing 786-0 or Caki-1 RCC xenograft tumors were randomized into 4 groups (6-8 mice/group): vehicle, mTOR inhibitor, TH-302 monotherapy, and TH-302 in combination with mTOR inhibitor, respectively. In the mTOR inhibitor monotherapy group, animals were dosed with a QD×8 regimen, and tumors were sampled 4 hr after the last treatment. In the TH-302 monotherapy group, 150 mg/kg was administered intraperitoneally to the animals, and the tumors were sampled 72 hr after the TH-302 treatment. In the combination therapy group, TH-302 was administered 4 hr after the last dose of mTOR inhibitor (QD×8, oral), and the tumors were sampled 72 hr later. Pimonidazole was administered 1 hr before euthanization (tumors were sampled on euthanization).\nA dose of 20 mg/kg of temsirolimus was administered intraperitoneally in the Caki-1 xenograft model. […] After temsirolimus treatment, the tumor hypoxic fraction was 12.8±0.7%, as compared to 7.5±1.9% in vehicle treated group (p<0.05). The tumor hypoxic fraction in the TH-302 monotherapy group was 4.3±0.7%."}, "Caki-1 cells [3]": {"tested_on": "Caki-1 cells", "assay": "Caki-1 RCC ectopic xenograft, TH-302 with everolimus", "format": "in vivo, nude mice", "conditions": "Caki-1 model; everolimus 5 mg/kg QD×19 p.o.; TH-302 50 mg/kg QD×5/week×3 weeks i.p.; both started day 1"}, "786-0 cells [4]": {"tested_on": "786-0 cells", "assay": "786-0 RCC ectopic xenograft, TH-302 with everolimus", "format": "in vivo, nude mice", "conditions": "786-0 model; everolimus 5 mg/kg QD×19 p.o.; TH-302 50 mg/kg QD×5/week×3 weeks i.p.; both started day 1"}, "SK-N-BE(2) cells": {"tested_on": "SK-N-BE(2) cells", "assay": "SK-N-BE(2) ectopic neuroblastoma model, TH-302 with everolimus", "format": "in vivo", "conditions": "SK-N-BE(2) model; everolimus 5 mg/kg QD×19 oral; TH-302 50 mg/kg QD×5/week×3 weeks i.p."}, "[5]": {"tested_on": "786-0 RCC xenograft tumors", "assay": "Tumor hypoxia (pimonidazole, morphometric analysis) in 786-0 xenograft", "format": "in vivo, nude mice", "conditions": "for tumor hypoxic fraction: everolimus 5 mg/kg oral QD×8, TH-302 150 mg/kg i.p., sampled 72 hr after TH-302"}, "Ki67, CD31, p-S6": {"tested_on": "Ki67, CD31, p-S6", "assay": "Pharmacodynamic study using immunohistochemistry of tumor tissue", "format": "in vivo, nude mice", "conditions": "after 7 days treatment of everolimus"}, "786-0 cells [6]": {"tested_on": "786-0 cells", "assay": "786-0 RCC ectopic xenograft, TH-302 with temsirolimus", "format": "in vivo, nude mice", "conditions": "786-0 model; temsirolimus 20 mg/kg QD×19 i.p.; TH-302 50 mg/kg QD×5/week×2 to 3 weeks i.p.; combination range covers day 1 and day 8 schedules", "text": "as §1"}},
  "note": "“Also recorded” adds a separate entry of the source.",
  "data": [
    {"smiles": "O=c1cc(N2CCOCC2)oc2c(-c3cccc4c3sc3ccccc34)cccc12", "note": "[NU7441]", "values": [
      {"measurement": "IC50", "setting": "mTOR", "value": 1700, "unit": "nM"},
      {"measurement": "IC50", "setting": "PI3K", "value": 5000, "unit": "nM"},
      {"measurement": "IC50", "setting": "DNA-PK", "value": 10, "unit": "nM"}
    ]},
    {"smiles": "COc1ccc(COc2cc3oc(=O)c4cc(C(C)O)ccc4c3cc2OC)cc1", "note": "(stereo not drawn) [Palomid 529]", "values": [
      {"measurement": "GI50", "setting": "NCI-60 cell lines panel", "value": "< 35000", "unit": "nM"}
    ]},
    {"smiles": "Cn1c(COP(=O)(NCCBr)NCCBr)cnc1[N+](=O)[O-]", "note": "[TH-302]", "values": [
      {"measurement": "tumor growth inhibition (TGI)", "setting": "Caki-1 cells [1]; TH-302 50 mg/kg i.p. starting on day 1", "value": 79, "unit": "%"},
      {"measurement": "tumor growth inhibition (TGI)", "setting": "Caki-1 cells [1]; TH-302 50 mg/kg i.p. starting on day 8", "value": 89, "unit": "%"},
      {"measurement": "tumor hypoxic fraction", "setting": "[2]", "value": "4.3±0.7", "unit": "%"},
      {"measurement": "change of tumor hypoxia (in words)", "setting": "[2]", "value": "reduces the size of the hypoxic region"},
      {"measurement": "tumor growth inhibition (TGI)", "setting": "Caki-1 cells [3]", "value": 57, "unit": "%"},
      {"measurement": "tumor growth inhibition (TGI)", "setting": "786-0 cells [4]", "value": "did not demonstrate statistically significant efficacy; also recorded: did not demonstrate statistically significant TGI"},
      {"measurement": "tumor growth inhibition (TGI)", "setting": "SK-N-BE(2) cells", "value": 45, "unit": "%"},
      {"measurement": "tumor hypoxic fraction", "setting": "[5]", "value": "3.7±1.2", "unit": "%"}
    ]},
    {"smiles": "c1cncc(CN2CCC(n3ncc4c(N5CCOCC5)nc(-c5ccc6[nH]ccc6c5)nc43)CC2)c1", "note": "[WAY-600]", "values": [
      {"measurement": "IC50", "setting": "mTOR", "value": 9, "unit": "nM"}
    ]},
    {"smiles": "COC(=O)Nc1ccc(-c2nc(N3CCOCC3)c3cnn(C4CCN(C(=O)OC)CC4)c3n2)cc1", "note": "[WYE-354]", "values": [
      {"measurement": "IC50", "setting": "mTOR", "value": 5, "unit": "nM"}
    ]},
    {"smiles": "CNC(=O)Nc1ccc(-c2nc(N3CC4CCC(C3)O4)c3cnn(C4CCC5(CC4)OCCO5)c3n2)cc1", "note": "[WYE-125132]", "values": [
      {"measurement": "IC50", "setting": "mTOR", "value": 0.19, "unit": "nM"}
    ]},
    {"smiles": "CO[C@H]1C[C@@H]2CC[C@@H](C)[C@@](O)(O2)C(=O)C(=O)N2CCCC[C@H]2C(=O)O[C@H]([C@H](C)C[C@@H]2CC[C@@H](OCCO)[C@H](OC)C2)CC(=O)[C@H](C)/C=C(\\C)[C@@H](O)[C@@H](OC)C(=O)[C@H](C)C[C@H](C)/C=C/C=C/C=C/1C", "note": "[everolimus]", "values": [
      {"measurement": "IC50", "setting": "mTOR", "value": 0.6, "unit": "nM"},
      {"measurement": "tumor growth inhibition (TGI)", "setting": "Caki-1 cells [3]", "value": 52, "unit": "%"},
      {"measurement": "tumor growth inhibition (TGI)", "setting": "786-0 cells [4]", "value": 49, "unit": "%"},
      {"measurement": "tumor growth inhibition (TGI)", "setting": "SK-N-BE(2) cells", "value": 40, "unit": "%"},
      {"measurement": "tumor hypoxic fraction", "setting": "[5]", "value": "6.3±1.5", "unit": "%"},
      {"measurement": "change of tumor hypoxia (in words)", "setting": "[5]; vs vehicle, combination vs mTOR inhibitor alone", "value": "increased hypoxia in the tumor; also recorded: significantly increases tumor hypoxia"},
      {"measurement": "cell proliferation (expression of nuclear antigen Ki67)", "setting": "Ki67, CD31, p-S6", "value": "significantly decreased"},
      {"measurement": "microvessel density (angiogenic marker CD31)", "setting": "Ki67, CD31, p-S6", "value": "significantly decreased"},
      {"measurement": "phosphorylation of the S6 ribosomal protein (p-S6)", "setting": "Ki67, CD31, p-S6", "value": "significantly decreased"}
    ]},
    {"smiles": "CO[C@H]1C[C@@H]2CC[C@@H](C)[C@@](O)(O2)C(=O)C(=O)N2CCCC[C@H]2C(=O)O[C@H]([C@H](C)C[C@@H]2CC[C@@H](OC(=O)C(C)(CO)CO)[C@H](OC)C2)CC(=O)[C@H](C)/C=C(\\C)[C@@H](O)[C@@H](OC)C(=O)[C@H](C)C[C@H](C)/C=C/C=C/C=C/1C", "note": "[temsirolimus]", "values": [
      {"measurement": "tumor hypoxic fraction", "setting": "[2]", "value": "12.8±0.7", "unit": "%"},
      {"measurement": "change of tumor hypoxia (in words)", "setting": "[2]", "value": "significant increase of tumor hypoxia; also recorded: significantly increases tumor hypoxia"},
      {"measurement": "tumor growth inhibition (TGI)", "setting": "786-0 cells [6]", "value": 113, "unit": "%"}
    ]}
  ]
}
